According to EP1285918A1, “C7 Ester substituted taxanes as antitumor agents” (Florida State University Research Foundation, Inc., priority 2001, dated 2003):

Test system: A2780 Human Ovarian Carcinoma Xenografts
Conditions: for MDS (n) / Complete Response / Partial Response / Stable Disease / Survivors / Toxic Deaths / Mean Score: i.v. qd x 1 (mg/kg: Taxol 24, 1351 75.3, 1401 107.6, 1418 107.6, Taxotere 70); for MDS (n): 2.0 g cut-off; for MDS (n) / Complete Response / Partial Response / Stable Disease / Survivors / Toxic Deaths: Day 60; for Mean Score: tumor score 1 to 10, group mean; for survival extension compared to Group 1 controls: i.v. qd x 1 (mg/kg: Taxol 24, 1418 107.6, Taxotere 70)
Description: Other antitumor compounds were similarly formulated. […] The dosing volume was 0.3 ml per 20 g mouse.
Female NCr-nude mice (implanted subcutaneously with 1 mm^3 A2780 ovarian carcinoma fragments in the flank) were sorted into treatment groups of five mice each, except for the Taxotere treatment group including six mice. […] Dosing was initiated on Day 1. The antitumor compounds were given i.v. at an estimated maximum tolerated dose (MTD) appropriate for each agent on a qd x 1 schedule (single administration of compound). […] Taxotere was given i.v. on a qd x 1 schedule at a dose of 70 mg/kg. The vehicle was administered i.v. to control mice in Group 1 on the qd x 1 schedule. Treatment groups are detailed in Table 7. The study was terminated on Day 60.
The results are summarized in Table 8 and include mean days of survival (MDS), number of toxic deaths, number of survivors, number of complete or partial responses, and number with stable disease. The mean days of survival is the number of days after which a neoplasm reached a size of 2.0 g and the animal was euthanized. A complete response is obtained if the tumor is not palpable at the end of the study. A partial response is obtained if the tumor shrinks to a size smaller than its size on Day 1 of the study.

SMILES	total response rate (1351 75.3 mg/kg i.v. qd x 1)	MDS (n)	Complete Response	Partial Response	Stable Disease	Survivors	Toxic Deaths	Mean Score	survival extension compared to Group 1 controls
CCC(=O)O[C@H]1C[C@H]2OC[C@@]2(OC(C)=O)[C@H]2[C@H](OC(=O)c3ccccc3)[C@]3(O)C[C@H](OC(=O)[C@H](O)[C@H](C=C(C)C)NC(=O)OC(C)(C)C)C(C)=C([C@@H](O)C(=O)[C@]12C)C3(C)C [Compound 1351]	at least 20%	23.0 ± 1.7 (4) days	0	1	0	1	0	3.6 ± 1.1	–
CCC(=O)O[C@H]1C[C@H]2OC[C@@]2(OC(C)=O)[C@H]2[C@H](OC(=O)c3ccccc3)[C@]3(O)C[C@H](OC(=O)[C@H](O)[C@@H](NC(=O)OC(C)(C)C)c4cccs4)C(C)=C([C@@H](O)C(=O)[C@]12C)C3(C)C [Compound 1418]	–	32.0 ± 2.3 (5) days	0	0	0	0	0	3 ± 0	approximately 300%
CC(=O)O[C@@]12CO[C@@H]1C[C@H](O)[C@@]1(C)C(=O)[C@H](O)C3=C(C)[C@@H](OC(=O)[C@H](O)[C@@H](NC(=O)OC(C)(C)C)c4ccccc4)C[C@@](O)([C@@H](OC(=O)c4ccccc4)[C@H]21)C3(C)C [docetaxel, reference compound]	–	27.4 ± 3.5 (5) days	0	0	0	0	0	2.5 ± 0.3	134%
CCC(=O)O[C@H]1C[C@H]2OC[C@@]2(OC(C)=O)[C@H]2[C@H](OC(=O)c3ccccc3)[C@]3(O)C[C@H](OC(=O)[C@H](O)[C@@H](NC(=O)OC(C)(C)C)c4ccoc4)C(C)=C([C@@H](O)C(=O)[C@]12C)C3(C)C [Compound 1401]	–	32.1 ± 3.9 (4) days	0	0	1	1	0	3.4 ± 0.4	–
